The text below walks through data of article PMC7281150, “Inspired by Sea Urchins: Warburg Effect Mediated Selectivity of Novel Synthetic Non-Glycoside 1,4-Naphthoquinone-6S-Glucose Conjugates in Prostate Cancer” (Marine Drugs, 2020).

Values after ≈ are worked out from the molar mass of the structure shown. Where two headings read alike, the source gives them in different places.

In data set [1] the test system is PC-3 cells. Kind of data set: Glucose uptake assay (2-NBDG), FACS-based readout. The class given is cell-based, human. Particulars: PC-3, 24 h. As for the experimental part:
(§1) The effects of the synthesized substance on glucose uptake were evaluated using the Glucose Uptake Cell-Based Assay Kit (Cayman chemicals, Ann Arbor, MI, USA) and two different methods. (a) Plate reader-based measurement: PC-3 cells (12 × 10^3 cells/well) were seeded in two 96-well plates, incubated overnight, and treated with the investigated drugs in 100 µL/well of glucose-free 0.1% FBS/RPMI media for 24 h. Then, the 10 µL/well of either 2-NBDG solution (2-deoxy-2-[(7-nitro-2,1,3-benzoxadiazol-4-yl)amino]-D-glucose, 5 mg/mL, for glucose uptake measurements) or vehicle solution (for cell viability measurements) in glucose-free 0.1% FBS/RPMI media were added to each well. […] Then, for glucose uptake measurements, the 100 µL/well of PBS were added and the fluorescence was measured using Infinite F200PRO reader (TECAN, Männedorf, Switzerland); or, for the cell viability measurements, 100 µL/well of media containing MTS reagent were added to the cells and viability was measured as described before. Glucose uptake rate was normalized to the cell viability measured by MTS assay in order to measure the uptake rate exclusively in the viable cells. (b) FACS-based readout: The experiment was performed as described before. […] The plates were then incubated with 2-NBDG solution, the cells were harvested by trypsination, washed, stained with PI, and analyzed using a flow cytometry.

In data set [2] the test system is 22Rv1 cells. Kind of data set: Western blotting of protein expression. The class given is cell-based, human. Particulars: for cleavage of caspase-3 (Western blotting) / p21 expression (Western blotting) / PARP cleavage (Western blotting): 22Rv1, 48 h; for PARP cleavage (Western blotting): concentrations close to IC50s. On the procedure:
(§2) Cells (10^6 cells/well) were seeded in Petri dishes (ø 6 cm) and incubated overnight. The cells were treated with the investigational drugs in fresh culture media (5 mL/dish) for 48 h. Then, cells were harvested by scratching and lysed in the lysis buffer (1% NP-40, 50 mM Tris-HCl (pH 7.6), 0.88% NaCl, 0.25% sodium cholate, 1 mM Na3VO4, 0.1 mM PMSF, protease inhibitors cocktail (cOmplete Mini EDTA-free EASYpacks, Roche, Mannheim, Germany)). Proteins were extracted and diluted with lysis buffer and loading dye, heated 5 min at 99 °C and subjected to electrophoresis in gradient Mini-PROTEAN® TGX Stain-Free^TM gels (Bio-Rad, Hercules, CA, USA). Proteins were transferred from gel to 0.2 µm pore PVDF membrane using Trans-Blot® Turbo^TM RTA Mini PVDF Trans kit (Bio-Rad) and Trans-Blot® Turbo^TM Blotting System (Bio-Rad) according to the manufactures protocol. The membrane was blocked (5% BSA in 0.05% Tween-20/TBS), treated with primary and secondary antibodies, and the signals were detected using the ECL chemiluminescence system (Thermo Scientific, Rockford, IL, USA). All procedures were performed according to the manufacturer′s protocols.

The test system of data set [3] is PC-3 cells. The class given is cell-based, human. Particulars: PC-3, zVAD 100 µM, 48 h.
Data set [4] relates to five prostate cancer (LNCaP, 22Rv1, VCaP, PC-3, and DU145) vs. five non-cancer (PNT2, RWPE-1, HEK 293T, MRC-9, and HUVEC) cell lines. As to the kind of experiment: Mean MTT cytotoxicity in five prostate cancer vs. five non-cancer cell lines. The class given is cell-based, human. To be noted: 48 h. As for the experimental part: (§3) Cell viability was determined by MTT assay. Cells were pre-incubated overnight in 96-well plates (6 × 10^3 cells/well in 100 μL/well). Then, the medium was replaced with fresh medium containing the determined compounds (100 μL/well), and cells were incubated for the indicated time. Next, 10 μL/well of (3-(4,5-dimethylthiazol-2-yl)-2,5-diphenyltetrazolium bromide) reagent were added. After 2–4 h of incubation, the media was aspirated and the plates were dried. Fifty microliters per well of DMSO were added to each well and the cell viability was measured using Infinite F200PRO reader (TECAN, Männedorf, Switzerland). Results were calculated by The GraphPad Prism software v. 7.05 (GraphPad Prism software Inc., La Jolla, CA, USA) and are represented as IC50 of the compounds against control cells treated with the solvent alone.

The test system of data set [5] is 22Rv1 cells. Kind of data set: Analysis of cell cycle progression and DNA fragmentation (PI staining, FACS). The class given is cell-based, human. Particulars: 22Rv1, 48 h. As for the experimental part: Cells (2 × 10^5 cells/well) were pre-incubated overnight in 6-well plates. Then, cells were treated with the substances in 2 mL of fresh culture media/well for 48 h. Cells were harvested by trypsination, fixed in 70% EtOH, stained with PI, and analyzed by FACS Calibur (BD Bioscience, San Jose, CA, USA). The results were quantified using BD Bioscience Cell Quest Pro v.5.2.1. software (BD Bioscience, San Jose, CA, USA). The sub-G1 population was considered to reflect apoptotic cells (containing fragmented DNA).

In data set [6] the test system is PC-3 cells. Kind of data set: Glucose uptake assay (2-NBDG), plate reader-based measurement. The class given is cell-based, human. Particulars: PC-3, 24 h. On the procedure:
as §1

For data set [7], the system named is 22Rv1 cells. Kind of data set: Analysis of mitochondrial membrane potential (JC-1, FACS). The class given is cell-based, human. On the procedure: The drop down of mitochondrial membrane potential (ΔΨm) was measured using staining with ΔΨm-sensitive JC-1 dye (5,5′,6,6′-Tetrachloro-1,1′,3,3′-tetraethyl-imidacarbocyanine iodide) and flow cytometry technique. Cells (10^5 cells/well) were seeded in 12-well plates and incubated overnight. […] The cells were trypsinized, pelleted, resuspended in 100 µL of 2 µM JC-1/PBS, incubated for 1 h (37 °C, 5% CO2, in the dark), and analyzed by flow cytometry technique.

Data set [8] concerns 22Rv1 cells. Kind of data set: Analysis of intracellular ROS level (CM-H2DCFDA, FACS). The class given is cell-based, human. To be noted: 2 h. As for the experimental part:
Intracellular ROS levels were accessed using the ROS-sensitive CM-H2DCFDA reagent (Cat. No. C6827, Molecular probes, Invitrogen, Eugene, OR, USA). The experiment was performed as previously described with slight modifications. In brief, 22Rv1 cells (10^5 cells/well) were seeded in 12-well plates and incubated overnight. The media was changed with freshly made pre-warmed staining solution (4 µM CM-H2DCFDA/PBS, 0.5 mL/well) and incubated in the dark (37 °C, 5% CO2) for 30 min. Then, the staining solution was exchanged with 1 mL/well of pre-warmed PBS containing the investigated compounds or H2O2 (positive control) at the indicated concentrations and the cells were incubated for 2 h. Next, the cells were trypsinized, resuspended in pre-warmed PBS (200 µL/sample) and immediately analyzed by FACS according to the manufacture′s protocol.

Data set [9] has as its system 22Rv1 cells. Kind of data set: MTT cytotoxicity in 22Rv1 cells with or without N-acetyl-L-cysteine. To be noted: without NaC, FBS- and glucose-free media, 48 h, read-out: IC50 (viability of 22Rv1 cells). The class given is cell-based, human. On the procedure: as §3
The test system of data set [10] is human drug-resistant prostate cancer PC-3 cells. As to the kind of experiment: MTT cytotoxicity in PC-3 cells. The class given is cell-based. Particulars: for IC50: 24 h, read-out: IC50 (viability of PC-3 cells). On the procedure: as §3
The subject of data set [11] is human cancer HeLa S3 cells. Set-up: method as in PMID 3437287. To be noted: cited from earlier work.
The test system of data set [12] is 22Rv1 cells. As to the kind of experiment: Cell fractionation (mitochondrial, cytoplasmic, total) with Western blotting. The class given is cell-based, human. To be noted: 22Rv1, 48 h. On the procedure:
as §2
The separation of cellular nuclear, mitochondrial, and cytosolic fractions was performed using the Cell Fractionation Kit ab109719 (abcam, Cambridge, MA, USA). […]

[13] abbreviates: glucose-containing media (+Glc, 2 g/L).

As to “6-(6-Deoxy-D-glucopyranos-6-ylthio)-5,8-dihydroxy-7-methyl-2,3-dimethoxy-1,4-naphthoquinone [SAB-14]”, the “glucose uptake (2-NBDG, single cells by flow cytometry), normalized to cell viability” value in data set [1] is reported as “inhibition of glucose uptake”. For the same molecule, in data set [2], the “cleavage of caspase-3 (Western blotting)” value is listed as “cleavage of caspase-3 was observed”, the “p21 expression (Western blotting)” value is “upregulation of p21” and the “PARP cleavage (Western blotting)” value is reported as “PARP cleavage”. Further, in [3], the “effect of co-treatment with pan-caspase inhibitor zVAD on cytotoxic effects” value is recorded as “antagonized the cytotoxic effects”. Also, the “selectivity to prostate cancer cells vs. non-cancer lines (mean cytotoxicity)” value in [4] is given as “higher selectivity to the cancer cells”. For the same molecule, in [5], the “DNA fragmentation (sub-G1 peak)” value is listed as “DNA fragmentation” and the cell cycle progression entry is reported as “G2/M-cell cycle arrest”. In [6], the “glucose uptake (2-NBDG, plate reader), normalized to cell viability” value is “inhibition of glucose uptake”. For the same molecule, in data set [7] (22Rv1, 10 μM, 2 h), the “cells containing depolarized mitochondria (JC-1)” value was 20.4±3.6%. The “cells containing depolarized mitochondria (JC-1)” value in data set [7] (22Rv1, 10 μM, 48 h) is recorded as 47±1.0%. Besides, in data set [8] (22Rv1, 5 μM), the “ROS level (CM-H2DCFDA, FACS)” value was 9.9±0.4%. Further, in [9], the IC50 is 4.6 ± 2.9 µM. In addition, the “selectivity index (SI), IC50 (PNT2)/IC50 (PC-3)” value in data set [10] (MTT, 48 h) is recorded as over 2. For the same molecule, in data set [10] (setting [13]), the IC50 was 22.6 ± 7.3 µM. Besides, the IC50 in [10] (glucose-free media (−Glc)) was 4.7 ± 1.4 µM.
As to `COC1=C(OC)C(=O)c2c(O)c(OC)cc(O)c2C1=O` [tricrozarin B], the “IC50 (colony formation)” value in [11] is 7 ng/mL (≈ 0.025 µM).
On to “6-(1,2,3,4-Tetra-O-acetyl-6-deoxy-β-D-glucopyranos-6-ylthio)-5,8-dihydroxy-7-methyl-2,3-dimethoxy-1,4-naphthoquinone [SAB-13]”, for which, in data set [1], the “glucose uptake (2-NBDG, single cells by flow cytometry), normalized to cell viability” value is recorded as “inhibition of glucose uptake”. The “redistribution of mitochondrial proteins (cytochrome C, AIF) to cytoplasm” value in data set [12] was “release of cytotoxic mitochondrial proteins to cellular cytoplasm”. The “caspase-9 activation (cleaved caspase-9, Western blotting)” value in data set [2] (22Rv1, 2 h) was “activated caspase-9 shortly after treatment”. For the same molecule, in [2], the “cleavage of caspase-3 (Western blotting)” value is listed as “cleavage of caspase-3 was observed”, the “p21 expression (Western blotting)” value was “upregulation of p21” and the “PARP cleavage (Western blotting)” value is “PARP cleavage”. Also, in data set [3], the “effect of co-treatment with pan-caspase inhibitor zVAD on cytotoxic effects” value is listed as “antagonized the cytotoxic effects”. In data set [5], the “DNA fragmentation (sub-G1 peak)” value is reported as “DNA fragmentation” and the cell cycle progression result is “G2/M-cell cycle arrest”. Also, the “glucose uptake (2-NBDG, plate reader), normalized to cell viability” value in data set [6] is on record as “inhibition of glucose uptake”. Also, the “cells containing depolarized mitochondria (JC-1)” value in data set [7] (22Rv1, 2 μM, 2 h) was 47.3±6.1%. For the same molecule, the “cells containing depolarized mitochondria (JC-1)” value in data set [7] (22Rv1, 2 μM, 48 h) is 69.5±8.1%. In data set [8] (22Rv1, 0.5 μM), the “ROS level (CM-H2DCFDA, FACS)” value is recorded as 31.2±3.2%. Moreover, the IC50 in data set [9] came out at 2.3 ± 0.3 µM. For the same molecule, the IC50 in [10] (setting [13]) was found to be 10.8 ± 1.7 µM. For the same molecule, the IC50 in [10] (glucose-free media (−Glc)) was found to be 5 ± 1.1 µM. Also, in data set [10] (screening, MTT, 48 h), the “higher cytotoxicity compared with SAB-14” value is reported as ~ 10 fold.
